In patent publication US20250049775A1, “USE OF AMINOPYRAZOLE COMPOUNDS” (Intervet Inc., priority 2021, published 2025):

Legend:
[1] = Tmax after oral dosing; format: in vivo, Beagle dog; conditions: laboratory Beagle dogs
Procedure: (§1) Using a randomized, non-blinded, cross-over study design, Compound 1 (1 mg/kg body weight), Apoquel®, or placebo was dosed orally to laboratory Beagle dogs 2 h prior to a cIL-31 challenge (approximate Tmax of Compound 1 and Apoquel®).

[2] = pilot Target Animal Safety (margin of safety) study, oral, 4 months; format: in vivo, Beagle dog
Procedure: A pilot Target Animal Safety study has been performed.
The objective of this study was to provide margin of safety information on Compound 1 at 1, 3 and 5 times the maximum recommended commercial dose (0.6 mg/kg body weight twice daily for two weeks and once daily thereafter (BID), or 1.2 mg/kg body weight daily (SID)) in 8-month-old Beagle dogs (at initiation of dosing), when given orally for 4 months (112 consecutive days). The clinical loading phase of 2 weeks for the BID treatment schedule was prolonged to 6 weeks in this study in accordance with VICH GL43 (3 times the proposed duration).
The test item was the final formulation blend of the investigational veterinary product, filled into gelatine capsules for dose administration. The control article was blank (empty) gelatine capsules.
In addition to that, a 4-month pilot target animal safety study has been conducted in 6-months old dogs utilizing either doses of 0.6, 1.8 or 3.0 mg/kg twice daily over the first 6 weeks (loading phase) and reducing to once daily thereafter (BID), or a dose of 6.0 mg/kg administered once daily over the whole study period (SID) compared to a control group, using 3 males and 3 females per group (Robertson, 2021).

[3] = system: cIL-31 induced pruritus; assay: canine interleukin-31 (cIL-31) induced pruritus model; format: in vivo, Beagle dog
Source text: A canine interleukin-31 (cIL-31) induced pruritus model in the Beagle dog was used to inform on the dose of Compound 1 required to inhibit JAK1 signaling in vivo. The cIL-31 induced pruritus model is a relevant model of acute pruritus associated with atopic and allergic dermatitis in dogs. The magnitude of the suppression of cIL-31 induced pruritus by JAK inhibitors is predictive of their pruritus suppression in patients with allergic or atopic dermatitis As a measure of JAK-1 inhibition in vivo, and by extension the anticipated clinical efficacy of Compound 1, we evaluated Compound 1 in a relevant pharmacodynamic model and included a clinical reference.
as §1
In a second study using a randomized, non-blinded crossover design, several doses of Compound 1 were evaluated (0.5, 0.1 and 0.05 mg/kg body weight); Apoquel® and placebo treatments were also included.

[4] = cited from earlier work
[5] = system: cIL-31 induced pruritus; conditions: prior treatment, Beagle dogs, Gonzales et al. 2016; cited from earlier work
[6] = system: pruritus and lesions of allergic or atopic dermatitis; conditions: cited from earlier work
[7] = dogs with allergic or atopic dermatitis, Cosgrove et al. 2013

COc1cc(Nc2nn([C@H]3COCC[C@@H]3C#N)cc2C(N)=O)cc(F)n1 (single isomer, unassigned) [Compound 1, 1-((3R,4S) or (3S,4R)-4-cyanotetrahydro-2H-pyran-3-yl)-3-((2-fluoro-6-methoxypyridin-4-yl)amino)-1H-pyrazole-4-carboxamide)]
Tmax ([1]; dog, in vivo, 1 mg/kg body weight, read-out: approximate Tmax): ~2 h
changes in body weight, food consumption, ophthalmic examinations, electrocardiology or blood pressure ([2]; all doses, male and female dogs, oral, 4 months): no changes
tolerability ([2]; daily oral, up to 5 times the recommended maximum commercial dose of 1.2 mg/kg body weight (BID or SID), 6-month-old beagle dogs): well tolerated
clinical findings ([2]; overdosed animals): Minor clinical findings (e.g., interdigital cysts, conjunctivitis, gingivitis, diarrhoea)
susceptibility to minor infections ([2]; recommended maximum commercial dose): no increased susceptibility to minor infections
susceptibility to minor infections ([2]; repeated overdoses): increased susceptibility to minor infections
overall safety conclusion ([2]; young dogs): safe for use in young dogs
suppression of cIL-31 induced pruritus ([3]; 0.05 mg/kg body weight, second study): not
suppression of cIL-31 induced pruritus ([3]; 0.1 mg/kg body weight, second study): not
suppression of cIL-31 induced pruritus ([3]; 0.5 mg/kg body weight, second study): significantly suppressed
magnitude of effect compared with Apoquel ([3]; 0.5 mg/kg, second study): similar
suppression of cIL-31 induced pruritus ([3]; 1 mg/kg body weight oral, 2 h prior to cIL-31 challenge, observed 2 h): significantly suppressed

oclacitinib maleate [Apoquel]
approximate Tmax [1]: ~2 h
dogs requiring euthanasia ([4]; after 4 months, 0, 1, 3, 5 times 0.6 mg/kg twice per day, dogs about 6 months old): two dogs required euthanasia
age dependence of adverse clinical effects ([4]; dog, in vivo): most severe adverse clinical effects were observed in dogs aged less than one year
deaths from infection secondary to immunosuppression ([4]; including one death 28 days after discontinuation): two deaths
adverse finding attributed to treatment-related immunosuppression ([4]; several dogs in the mid and high dose groups): clinical demodicosis
inhibition of cIL-31 induced pruritic response [5]: can be inhibited
effect on lesions [6, 7]: reduces lesions
effect on pruritus [6, 7]: rapid amelioration of pruritus
haematology effect ([6]; higher doses, FOI Summary NADA 141-345, Gonzales et al. 2014): reduction in hematocrit, hemoglobin, and reticulocyte counts
